SMILES strings stand for the structures.

Among the targets are Histamine H1 receptor (Homo sapiens, UniProt P35367); D(3) dopamine receptor (Homo sapiens, UniProt P35462); D(1B) dopamine receptor (Homo sapiens, UniProt P21918); Histamine H2 receptor (Homo sapiens, UniProt P25021); D(1A) dopamine receptor (Homo sapiens, UniProt P21728); Adenosine receptor A1 (Homo sapiens, UniProt P30542); Vasopressin V1a receptor (Homo sapiens, UniProt P37288); D(2) dopamine receptor (Homo sapiens, UniProt P14416).

The target in test [1] is 5-hydroxytryptamine receptor 5A (Homo sapiens, UniProt P47898).
Test [2] deals with 5-hydroxytryptamine receptor 7 (Homo sapiens, UniProt P34969).
Sequence of 5-hydroxytryptamine receptor 7 (P34969 whole entry): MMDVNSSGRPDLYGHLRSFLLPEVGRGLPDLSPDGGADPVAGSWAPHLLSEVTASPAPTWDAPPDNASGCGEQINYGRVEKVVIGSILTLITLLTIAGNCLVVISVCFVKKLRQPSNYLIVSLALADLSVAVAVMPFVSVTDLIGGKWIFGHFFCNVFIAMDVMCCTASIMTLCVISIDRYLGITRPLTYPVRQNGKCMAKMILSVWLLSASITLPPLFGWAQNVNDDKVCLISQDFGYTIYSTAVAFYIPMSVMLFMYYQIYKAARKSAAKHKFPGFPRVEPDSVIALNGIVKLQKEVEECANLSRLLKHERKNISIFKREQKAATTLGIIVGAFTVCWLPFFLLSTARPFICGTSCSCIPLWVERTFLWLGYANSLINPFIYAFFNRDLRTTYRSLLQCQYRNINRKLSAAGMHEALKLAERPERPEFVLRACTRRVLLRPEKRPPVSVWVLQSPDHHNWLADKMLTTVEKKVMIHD
Test [3] addresses Voltage-gated L-type calcium channel (Homo sapiens, UniProt Q13936+Q13698+Q01668+O60840). The class given is protein assay.
In test [4] the target is 5-hydroxytryptamine receptor 2A (Homo sapiens, UniProt P28223).
Sequence of 5-hydroxytryptamine receptor 2A (P28223 whole entry): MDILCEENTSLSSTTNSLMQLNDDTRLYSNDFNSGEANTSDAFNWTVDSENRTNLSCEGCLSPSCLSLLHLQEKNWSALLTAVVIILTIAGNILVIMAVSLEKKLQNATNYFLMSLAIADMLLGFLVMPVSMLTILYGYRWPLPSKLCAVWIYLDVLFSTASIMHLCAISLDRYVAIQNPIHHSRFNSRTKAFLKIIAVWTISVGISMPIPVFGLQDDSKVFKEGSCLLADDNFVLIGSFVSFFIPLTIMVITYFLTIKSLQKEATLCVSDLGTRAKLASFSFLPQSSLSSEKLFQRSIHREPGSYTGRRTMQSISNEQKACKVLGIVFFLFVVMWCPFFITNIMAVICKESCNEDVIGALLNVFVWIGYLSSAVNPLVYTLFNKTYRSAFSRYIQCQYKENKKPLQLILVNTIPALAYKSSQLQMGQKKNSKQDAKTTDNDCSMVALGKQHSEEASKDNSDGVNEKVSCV
The target in test [5] is T1, 5-hydroxytryptamine receptor 2C (Homo sapiens, UniProt P28335).
T1 sequence (P28335 whole entry): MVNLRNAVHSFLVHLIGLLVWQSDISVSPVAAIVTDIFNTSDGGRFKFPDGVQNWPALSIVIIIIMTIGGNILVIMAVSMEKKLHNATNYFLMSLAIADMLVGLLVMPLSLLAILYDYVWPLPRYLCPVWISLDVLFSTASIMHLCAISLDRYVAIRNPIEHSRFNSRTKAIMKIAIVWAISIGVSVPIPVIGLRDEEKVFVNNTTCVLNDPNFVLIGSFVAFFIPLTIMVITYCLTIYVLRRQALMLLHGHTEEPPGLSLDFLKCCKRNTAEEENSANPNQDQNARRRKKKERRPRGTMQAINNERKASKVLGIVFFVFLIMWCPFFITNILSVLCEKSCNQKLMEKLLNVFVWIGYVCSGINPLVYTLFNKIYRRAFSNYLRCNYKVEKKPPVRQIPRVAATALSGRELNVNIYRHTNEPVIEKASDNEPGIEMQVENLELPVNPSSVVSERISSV

The target in the next test is T2, D(4) dopamine receptor (Homo sapiens, UniProt P21917).
T2 sequence (P21917 whole entry): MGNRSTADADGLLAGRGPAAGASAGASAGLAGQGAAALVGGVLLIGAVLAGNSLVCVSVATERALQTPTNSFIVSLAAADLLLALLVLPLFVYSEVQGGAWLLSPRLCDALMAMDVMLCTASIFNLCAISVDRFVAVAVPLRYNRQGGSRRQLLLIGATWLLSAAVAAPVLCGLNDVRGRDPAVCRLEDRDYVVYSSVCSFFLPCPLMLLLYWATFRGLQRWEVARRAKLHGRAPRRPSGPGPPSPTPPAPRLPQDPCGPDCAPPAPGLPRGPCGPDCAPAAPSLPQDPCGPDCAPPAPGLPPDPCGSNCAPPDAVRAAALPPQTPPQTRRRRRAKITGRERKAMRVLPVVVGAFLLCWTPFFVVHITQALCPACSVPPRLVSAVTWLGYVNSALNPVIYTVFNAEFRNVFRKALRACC

In test [6] the target is T3, Sodium-dependent dopamine transporter (Homo sapiens, UniProt Q01959).
T3 sequence (Q01959 whole entry): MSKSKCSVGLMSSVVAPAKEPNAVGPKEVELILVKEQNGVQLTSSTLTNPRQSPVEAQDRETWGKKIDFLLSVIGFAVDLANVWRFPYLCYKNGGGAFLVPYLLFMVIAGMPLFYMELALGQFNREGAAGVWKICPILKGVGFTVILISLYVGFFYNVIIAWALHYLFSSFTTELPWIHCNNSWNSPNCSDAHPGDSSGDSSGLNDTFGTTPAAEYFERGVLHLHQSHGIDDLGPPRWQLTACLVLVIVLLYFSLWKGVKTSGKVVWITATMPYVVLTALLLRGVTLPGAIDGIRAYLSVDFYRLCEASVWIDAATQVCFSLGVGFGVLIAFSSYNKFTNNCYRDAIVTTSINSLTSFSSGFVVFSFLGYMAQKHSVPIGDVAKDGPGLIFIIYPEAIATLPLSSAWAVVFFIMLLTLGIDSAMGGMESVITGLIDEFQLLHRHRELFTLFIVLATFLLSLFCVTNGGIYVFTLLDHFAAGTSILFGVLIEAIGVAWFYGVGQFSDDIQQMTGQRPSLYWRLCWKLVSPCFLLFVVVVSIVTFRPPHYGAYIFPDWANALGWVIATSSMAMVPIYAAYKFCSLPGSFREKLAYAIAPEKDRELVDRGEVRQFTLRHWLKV
Test [7] has as its target T4, Adrenergic receptor alpha-1 (Homo sapiens, UniProt P35348+P25100+P35368).
T4 sequence (P35348 whole entry): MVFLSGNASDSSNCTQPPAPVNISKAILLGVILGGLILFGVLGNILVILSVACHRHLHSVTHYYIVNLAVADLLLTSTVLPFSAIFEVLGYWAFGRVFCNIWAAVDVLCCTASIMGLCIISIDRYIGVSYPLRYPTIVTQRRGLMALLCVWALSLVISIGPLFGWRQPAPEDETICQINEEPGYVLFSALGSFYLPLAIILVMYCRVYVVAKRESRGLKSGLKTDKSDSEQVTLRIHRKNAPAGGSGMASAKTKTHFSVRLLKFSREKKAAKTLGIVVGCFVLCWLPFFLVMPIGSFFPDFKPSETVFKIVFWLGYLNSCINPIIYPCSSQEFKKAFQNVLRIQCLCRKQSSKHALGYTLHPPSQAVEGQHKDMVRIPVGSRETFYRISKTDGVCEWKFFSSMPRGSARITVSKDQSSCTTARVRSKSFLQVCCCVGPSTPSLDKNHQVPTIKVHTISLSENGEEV
T4 sequence (P25100 whole entry): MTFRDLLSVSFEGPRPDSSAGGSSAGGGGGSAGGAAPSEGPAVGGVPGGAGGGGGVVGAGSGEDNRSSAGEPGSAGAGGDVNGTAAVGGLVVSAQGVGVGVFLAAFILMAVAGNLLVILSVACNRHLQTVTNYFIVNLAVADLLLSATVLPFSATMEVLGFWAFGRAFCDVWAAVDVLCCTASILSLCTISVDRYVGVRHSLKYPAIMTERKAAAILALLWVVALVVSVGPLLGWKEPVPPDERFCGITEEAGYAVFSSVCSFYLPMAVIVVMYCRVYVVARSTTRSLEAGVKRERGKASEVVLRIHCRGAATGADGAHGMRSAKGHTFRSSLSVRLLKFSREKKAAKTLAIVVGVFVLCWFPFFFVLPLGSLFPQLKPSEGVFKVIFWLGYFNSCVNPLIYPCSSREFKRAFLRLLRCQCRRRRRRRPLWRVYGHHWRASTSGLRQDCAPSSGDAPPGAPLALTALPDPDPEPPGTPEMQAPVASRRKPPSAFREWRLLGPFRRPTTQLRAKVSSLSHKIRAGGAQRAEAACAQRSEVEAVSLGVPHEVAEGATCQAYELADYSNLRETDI
T4 sequence (P35368 whole entry): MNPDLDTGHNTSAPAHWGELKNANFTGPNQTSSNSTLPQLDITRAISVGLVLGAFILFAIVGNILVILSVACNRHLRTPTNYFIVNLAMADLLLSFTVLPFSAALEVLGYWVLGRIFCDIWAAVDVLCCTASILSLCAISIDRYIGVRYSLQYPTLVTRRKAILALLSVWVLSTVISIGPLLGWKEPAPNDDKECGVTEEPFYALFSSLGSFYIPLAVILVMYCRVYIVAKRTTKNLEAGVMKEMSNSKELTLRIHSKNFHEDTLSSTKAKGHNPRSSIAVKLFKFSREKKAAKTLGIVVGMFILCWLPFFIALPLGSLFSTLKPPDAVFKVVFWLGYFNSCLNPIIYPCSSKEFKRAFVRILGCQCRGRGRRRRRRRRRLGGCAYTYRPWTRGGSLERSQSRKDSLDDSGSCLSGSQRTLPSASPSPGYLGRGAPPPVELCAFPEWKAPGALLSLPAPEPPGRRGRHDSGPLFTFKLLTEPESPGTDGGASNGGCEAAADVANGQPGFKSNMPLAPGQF
The class given is protein assay.

The target of test [8] is 5-hydroxytryptamine receptor 6 (Homo sapiens, UniProt P50406).
Sequence of 5-hydroxytryptamine receptor 6 (P50406 whole entry): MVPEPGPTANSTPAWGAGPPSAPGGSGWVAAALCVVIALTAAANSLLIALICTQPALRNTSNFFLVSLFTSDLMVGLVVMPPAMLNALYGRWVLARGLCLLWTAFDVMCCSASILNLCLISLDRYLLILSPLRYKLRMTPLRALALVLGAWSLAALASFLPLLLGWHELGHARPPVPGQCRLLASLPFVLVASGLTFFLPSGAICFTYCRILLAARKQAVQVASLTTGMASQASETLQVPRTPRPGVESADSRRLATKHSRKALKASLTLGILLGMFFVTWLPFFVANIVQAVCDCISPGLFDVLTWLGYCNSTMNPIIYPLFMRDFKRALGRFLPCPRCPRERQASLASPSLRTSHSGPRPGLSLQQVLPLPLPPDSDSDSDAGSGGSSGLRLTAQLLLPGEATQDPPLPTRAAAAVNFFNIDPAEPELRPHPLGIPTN
A further test addresses T5, Adenosine receptor A3 (Homo sapiens, UniProt P0DMS8).
T5 sequence (P0DMS8 whole entry): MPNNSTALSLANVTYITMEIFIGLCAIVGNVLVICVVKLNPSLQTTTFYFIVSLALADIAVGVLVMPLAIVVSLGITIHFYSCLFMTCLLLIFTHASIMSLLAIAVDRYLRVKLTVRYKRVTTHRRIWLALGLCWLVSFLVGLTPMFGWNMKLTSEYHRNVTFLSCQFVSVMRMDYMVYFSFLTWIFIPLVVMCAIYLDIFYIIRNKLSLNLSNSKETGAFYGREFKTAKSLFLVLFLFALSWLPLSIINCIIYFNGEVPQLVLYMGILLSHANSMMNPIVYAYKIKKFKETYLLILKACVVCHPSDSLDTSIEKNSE

Test [9] deals with T6, 5-hydroxytryptamine receptor 1A (Homo sapiens, UniProt P08908).
T6 sequence (P08908 whole entry): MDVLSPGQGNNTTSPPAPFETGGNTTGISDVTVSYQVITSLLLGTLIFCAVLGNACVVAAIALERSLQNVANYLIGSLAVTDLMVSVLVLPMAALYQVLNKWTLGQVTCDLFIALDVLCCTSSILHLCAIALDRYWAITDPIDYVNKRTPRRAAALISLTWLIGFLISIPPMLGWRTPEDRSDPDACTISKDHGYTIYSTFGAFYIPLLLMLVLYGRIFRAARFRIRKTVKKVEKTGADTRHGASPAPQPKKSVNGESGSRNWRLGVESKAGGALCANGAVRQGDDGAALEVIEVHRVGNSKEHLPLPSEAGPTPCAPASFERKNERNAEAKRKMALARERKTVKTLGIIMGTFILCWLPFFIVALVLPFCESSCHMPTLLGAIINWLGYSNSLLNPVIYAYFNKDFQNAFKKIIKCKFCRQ

The target in test [10] is T3, Sodium-dependent dopamine transporter. This is another data set of the same source.

Sequence of D(1B) dopamine receptor (P21918 whole entry): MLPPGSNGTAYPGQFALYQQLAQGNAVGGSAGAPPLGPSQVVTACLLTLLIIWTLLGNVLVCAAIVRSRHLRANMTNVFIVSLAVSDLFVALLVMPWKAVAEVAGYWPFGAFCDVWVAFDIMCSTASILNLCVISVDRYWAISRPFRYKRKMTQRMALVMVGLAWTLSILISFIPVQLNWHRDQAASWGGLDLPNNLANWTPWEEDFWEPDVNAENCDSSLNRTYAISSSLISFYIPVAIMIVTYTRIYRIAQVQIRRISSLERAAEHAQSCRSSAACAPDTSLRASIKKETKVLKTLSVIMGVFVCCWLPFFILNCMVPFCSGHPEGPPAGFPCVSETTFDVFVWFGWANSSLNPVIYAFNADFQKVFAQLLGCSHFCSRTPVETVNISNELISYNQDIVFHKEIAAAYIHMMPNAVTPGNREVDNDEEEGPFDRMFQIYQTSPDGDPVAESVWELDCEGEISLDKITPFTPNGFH
Sequence of Histamine H1 receptor (P35367 whole entry): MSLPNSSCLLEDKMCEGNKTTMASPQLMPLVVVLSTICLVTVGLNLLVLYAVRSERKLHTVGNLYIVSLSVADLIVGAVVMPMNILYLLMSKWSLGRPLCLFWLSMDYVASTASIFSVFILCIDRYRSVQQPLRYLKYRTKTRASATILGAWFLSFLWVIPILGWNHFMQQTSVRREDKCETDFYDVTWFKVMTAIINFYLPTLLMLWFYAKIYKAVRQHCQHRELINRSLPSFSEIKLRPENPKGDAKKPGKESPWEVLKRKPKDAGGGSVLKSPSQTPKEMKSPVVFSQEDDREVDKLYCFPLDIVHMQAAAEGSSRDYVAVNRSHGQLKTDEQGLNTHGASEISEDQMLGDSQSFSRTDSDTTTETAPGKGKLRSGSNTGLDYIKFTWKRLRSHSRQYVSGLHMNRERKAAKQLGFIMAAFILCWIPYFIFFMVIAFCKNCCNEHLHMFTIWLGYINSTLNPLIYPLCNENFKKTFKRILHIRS
Sequence of D(3) dopamine receptor (P35462 whole entry): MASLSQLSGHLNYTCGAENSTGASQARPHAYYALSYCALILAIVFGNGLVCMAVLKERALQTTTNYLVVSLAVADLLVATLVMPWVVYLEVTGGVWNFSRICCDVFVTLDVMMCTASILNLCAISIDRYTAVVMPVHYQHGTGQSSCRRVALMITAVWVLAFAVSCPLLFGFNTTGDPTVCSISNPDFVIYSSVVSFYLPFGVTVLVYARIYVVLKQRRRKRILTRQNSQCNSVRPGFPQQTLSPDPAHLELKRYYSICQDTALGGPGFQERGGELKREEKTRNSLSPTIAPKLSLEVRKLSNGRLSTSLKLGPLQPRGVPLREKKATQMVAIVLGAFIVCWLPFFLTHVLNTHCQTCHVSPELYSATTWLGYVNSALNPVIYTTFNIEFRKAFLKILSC
Sequence of Histamine H2 receptor (P25021 whole entry): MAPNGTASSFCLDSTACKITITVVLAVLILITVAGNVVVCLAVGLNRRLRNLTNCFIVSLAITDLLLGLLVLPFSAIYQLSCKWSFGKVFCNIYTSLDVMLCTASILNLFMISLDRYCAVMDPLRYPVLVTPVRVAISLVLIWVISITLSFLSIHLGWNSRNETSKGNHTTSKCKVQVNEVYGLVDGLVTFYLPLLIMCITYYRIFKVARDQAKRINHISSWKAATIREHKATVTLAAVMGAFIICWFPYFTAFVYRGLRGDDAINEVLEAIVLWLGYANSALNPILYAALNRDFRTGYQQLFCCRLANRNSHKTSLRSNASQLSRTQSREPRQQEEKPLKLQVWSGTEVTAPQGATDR
Sequence of D(1A) dopamine receptor (P21728 whole entry): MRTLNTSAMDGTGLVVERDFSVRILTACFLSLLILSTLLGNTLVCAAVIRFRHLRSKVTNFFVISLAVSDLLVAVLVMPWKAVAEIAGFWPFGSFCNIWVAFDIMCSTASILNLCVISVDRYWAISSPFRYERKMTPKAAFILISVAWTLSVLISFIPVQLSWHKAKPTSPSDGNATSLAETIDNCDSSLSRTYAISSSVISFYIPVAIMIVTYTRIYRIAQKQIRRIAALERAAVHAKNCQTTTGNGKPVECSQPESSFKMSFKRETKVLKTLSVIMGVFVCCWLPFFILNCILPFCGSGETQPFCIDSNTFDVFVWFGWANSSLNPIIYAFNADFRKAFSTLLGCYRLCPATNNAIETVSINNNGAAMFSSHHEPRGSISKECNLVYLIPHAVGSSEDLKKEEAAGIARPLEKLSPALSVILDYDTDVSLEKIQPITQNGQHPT
Sequence of D(2) dopamine receptor (P14416 whole entry): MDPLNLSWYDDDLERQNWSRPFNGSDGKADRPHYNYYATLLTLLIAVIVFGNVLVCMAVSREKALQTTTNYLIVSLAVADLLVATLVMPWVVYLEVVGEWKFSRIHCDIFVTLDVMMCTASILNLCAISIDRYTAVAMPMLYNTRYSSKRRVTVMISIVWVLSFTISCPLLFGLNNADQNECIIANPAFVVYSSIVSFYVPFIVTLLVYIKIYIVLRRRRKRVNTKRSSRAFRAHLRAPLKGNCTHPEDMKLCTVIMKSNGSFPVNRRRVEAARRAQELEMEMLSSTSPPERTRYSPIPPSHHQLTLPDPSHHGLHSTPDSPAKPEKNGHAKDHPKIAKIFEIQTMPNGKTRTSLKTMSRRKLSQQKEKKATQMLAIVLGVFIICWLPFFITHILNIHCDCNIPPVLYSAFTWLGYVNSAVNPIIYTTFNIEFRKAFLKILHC
Sequence of Adenosine receptor A1 (P30542 whole entry): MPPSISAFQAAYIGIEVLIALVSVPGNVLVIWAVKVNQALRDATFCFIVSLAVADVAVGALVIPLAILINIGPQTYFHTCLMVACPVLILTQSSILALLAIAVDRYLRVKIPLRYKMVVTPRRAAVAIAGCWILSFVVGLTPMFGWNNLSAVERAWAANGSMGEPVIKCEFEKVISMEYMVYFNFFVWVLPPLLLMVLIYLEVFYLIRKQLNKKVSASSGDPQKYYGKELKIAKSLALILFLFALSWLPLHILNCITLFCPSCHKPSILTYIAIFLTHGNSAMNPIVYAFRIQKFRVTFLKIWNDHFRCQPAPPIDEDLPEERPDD

By IC50 is commonly meant the concentration that inhibits the measured activity by half. For the molecule `O=C(CCCc1ccccc1)N1CCN(CCCC(c2ccc(F)cc2)c2ccc(F)cc2)CC1`, the IC50 in test [1] was found to be 5.52 µM; in test [2], 2130 nM; in test [3], 2350 nM; in test [4], 950 nM; against Histamine H1 receptor, 1930 nM; in test [5], 4070 nM. Besides, the IC50 against D(3) dopamine receptor worked out at 758 nM; against D(4) dopamine receptor, 280 nM; in test [6], 954 nM; in test [7], 2190 nM; against D(1B) dopamine receptor, 1860 nM; against Histamine H2 receptor, 1980 nM. In addition, the IC50 at D(1A) dopamine receptor was 2750 nM; in [8], 7780 nM.
In turn, `COc1ccc(SCCC(=O)N2CCN(Cc3cccc(Oc4ccc(Cl)cc4)c3)CC2)cc1` had an IC50 at Adenosine receptor A3 of 3.75 µM.
Take `O=C(NCCCn1c(=O)[nH]c2ccccc21)OCc1cc2c(cc1Cl)OCO2`: the results for the IC50 against Adenosine receptor A3 and against Adenosine receptor A1 were 3.33 µM and 344 nM, respectively.
As to `CCOc1ccc(CCOC(=O)N2CCN(CCCc3ccccc3)CC2)cc1`, the IC50 in test [2] stood at 1430 nM; in [4], 980 nM; against Adenosine receptor A3, 4.18 µM.
As to `O=c1[nH]c2ccccc2n(C2CCN(Cc3cc4c(cc3Cl)OCO4)CC2)c1=O`, the IC50 at D(4) dopamine receptor is 6550 nM; in test [6], 1520 nM.
Turning to `O=C(OCc1cccc(Oc2ccccc2)c1)N1CCC2(CC1)C(=O)NCN2c1ccccc1`, the concentration for half-maximal inhibition (IC50) in test [9] was 2080 nM; in [5], 652 nM; on Adenosine receptor A3, 1.51 µM; in test [10], 2940 nM.
For `O=C(OC1CCc2ccccc21)N1CCC2(CC1)C(=O)NCN2c1ccccc1` (centres undefined), the figures for the IC50 (in test [5]; on D(3) dopamine receptor; against Vasopressin V1a receptor) were 345 nM, 3180 nM and 5.16 µM, respectively.
Take `O=C(OCCc1ccc(F)cc1)N1CCN(CCCC(c2ccc(F)cc2)c2ccc(F)cc2)CC1`: the half-inhibitory concentration (IC50) was found to be 726 nM in test [2]; 1140 nM in test [9]; 2730 nM in [3]; 1060 nM in [4]; 1280 nM at Histamine H1 receptor; 3450 nM in [5]. Also, the IC50 against D(3) dopamine receptor was determined as 456 nM; against D(2) dopamine receptor, 2620 nM; against D(4) dopamine receptor, 338 nM; in [6], 1650 nM; in [7], 1640 nM; at Adenosine receptor A3, 4.21 µM. Moreover, the concentration for half-maximal inhibition (IC50) against D(1B) dopamine receptor was 1550 nM; against Histamine H2 receptor it was 1250 nM; in test [8], 1530 nM.
As to `O=C(CCc1ccc(F)cc1)N1CCN(CCCC(c2ccc(F)cc2)c2ccc(F)cc2)CC1`, the IC50 in test [2] is 1170 nM; in test [9] it was 1110 nM; in [3], 4300 nM; in [4], 1030 nM; against Histamine H1 receptor, 1660 nM; against D(3) dopamine receptor, 977 nM. The IC50 against D(4) dopamine receptor stood at 716 nM; in [6], 1280 nM; in test [7], 1170 nM; against Adenosine receptor A3, 5.08 µM; at D(1B) dopamine receptor, 3020 nM; at Histamine H2 receptor, 1340 nM. In addition, the IC50 in [8] turned out to be 1350 nM.
Take `N#Cc1ccc(CCOC(=O)N2CCN(CCCC(c3ccc(F)cc3)c3ccc(F)cc3)CC2)cc1`: the concentration for half-maximal inhibition (IC50) is 3.38 µM in test [1]; 1440 nM in test [2]; 1020 nM in test [9]; 1720 nM in test [3]; 715 nM in [4]; 795 nM at Histamine H1 receptor. Further, the IC50 at D(3) dopamine receptor stood at 195 nM; on D(2) dopamine receptor, 2240 nM; on D(4) dopamine receptor it was 776 nM; in test [6], 996 nM; in test [7], 1100 nM; against Adenosine receptor A3, 3.48 µM. The IC50 turned out to be 988 nM against D(1B) dopamine receptor, 1030 nM against Histamine H2 receptor, 1120 nM on D(1A) dopamine receptor and 2280 nM in test [8].
Take `N#Cc1ccc(CCOC(=O)N2CCN(CCCc3ccccc3)CC2)cc1`: the IC50 amounted to 1570 nM in test [9], 854 nM in test [4], 280 nM at Histamine H1 receptor and 1410 nM against D(4) dopamine receptor.
As to `COc1ccc(CN2CCN(C(=O)CCn3cc(C)c4ccccc43)CC2)cc1OCc1ccccc1`, the half-inhibitory concentration (IC50) in [3] is 4840 nM; against Adenosine receptor A3, 3.73 µM.

The record behind these values is ChEMBL document CHEMBL1134625 (J Med Chem, 2001).
